# Values quoted from earlier work in US20040197402A1, “Oxcarbazepine dosage forms” (priority 2001, published 2004).
# Conditions: background statement
structure (smiles),measurement,value
"NC(=O)N1c2ccccc2CC(=O)c2ccccc21 [Oxcarbazepine, 10, 11-dihydro-10-oxo-5H-dibenz [b,f], azepine-5-carboxamide]",solubility in water,poor solubility in water
